Literature values in US11427609B2, “Glycosidic derivatives of treprostinil” (AOP ORPHAN IP AG, priority 2017, dated 2022).

SMILES: CCCCC[C@H](O)CC[C@@H]1[C@H]2Cc3cccc(OCC(=O)O)c3C[C@H]2C[C@H]1O [Treprostinil]
- bioavailability (Remodulin, subcutaneous or intravenous infusion): ~100%
- biological half-life (human organism): 4.4-4.6 hours
- excretion in feces (in vivo): 13%
- urinary excretion as identified metabolites (in vivo): 64%
- urinary excretion as unmetabolized treprostinil (in vivo): 4%
- urinary excretion (total): 79%
